This passage reports IC50, off-target carboanhydrase activity and brain penetration results from patent publication US20240408068A1, “Helicase Primase Inhibitors For Treating Cancer In A Combination Therapy With Oncolytic Viruses” (priority 2018, published 2024).

Like-named read-outs stand apart in the source and are kept apart here.

One data set concerns HSV-1. The experiment in a line: In vitro activity, HSV-1 infected Vero cells. The class given is cell-based. How it is done: (§1) The in vitro activity of the new compounds was measured as described in WO2017/174640 and in WO2019/068817.
The test system of a further data set is HSV-2. Description: In vitro activity, HSV-2 infected Vero cells. The class given is cell-based. As to the method: as §1
For another data set, the system named is HSV-1 ACV resistant. The experiment in a line: In vitro activity, HSV-1 ACV resistant. The settings on record: Human alphaherpesvirus 1. The class given is cell-based. How it is done: as §1
The next data set has as its system carboanhydrase. To be noted: described in WO2019/068817; cited from earlier work.
The conditions of data set [1]: described in WO2019/068817; cited from earlier work.

A word on the IC50: it is the point on the concentration scale where inhibition reaches its midpoint. Higher therefore signals weaker potency in that assay.

With `Cc1nc(N(C)C(=O)C2Cc3ccc(-c4cc(F)ccc4F)cc3C2)sc1S(N)(=O)=O` (racemic) [Example 1, 5-(2,5-Difluorophenyl)-N-methyl-N-(4-methyl-5-sulfamoylthiazol-2-yl)-2,3-di-hydro-1H-indene-2-carboxamide], the IC50 in the data set on HSV-1 (Human alphaherpesvirus 1, Vero) worked out at 16 nM; in the data set with HSV-2 (Human alphaherpesvirus 2, Vero) it was 50 nM; in the data set on HSV-1 ACV resistant it was 16 nM.

Take `Cc1nc(N(C)C(=O)C2Cc3ccc(-c4cc(F)ccc4F)cc3C2)sc1S(C)(=N)=O` (racemic) [Example 4, 5-(2,5-Difluorophenyl)-N-methyl-N-(4-methyl-5-(S-methylsulfonimidoyl)thiazol-2-yl)-2,3-dihydro-1H-indene-2-carboxamide]: the half-inhibitory concentration (IC50) in the data set on HSV-1 (Human alphaherpesvirus 1, Vero) is 750 nM; in the data set on HSV-2 (Human alphaherpesvirus 2, Vero), 1500 nM; in the data set on HSV-1 ACV resistant, 750 nM.

Regarding `Cc1nc(N(C)C(=O)C2Cc3ccc(-c4cc(F)ccc4F)cc3C2)sc1S(N)(=O)=O` (single isomer, unassigned; (-)) [Example 2, (−)-5-(2,5-Difluorophenyl)-N-methyl-N-(4-methyl-5-sulfamoylthiazol-2-yl)-2,3-dihydro-1H-indene-2-carboxamide], the IC50 in the data set on HSV-1 amounted to 2000 nM; with HSV-2, 16000 nM.

For `Nc1nc2c(ncn2COCCO)c(=O)[nH]1` [Acyclovir, reference compound], the IC50 is 500 to 3000 nM in the data set on HSV-1 (Human alphaherpesvirus 1, Vero); 500 to 3000 nM in the data set on HSV-2 (Human alphaherpesvirus 2, Vero); above 25000 nM with HSV-1 ACV resistant.

`Cc1nc(N(C)C(=O)Cc2ccc(-c3cc(F)ccc3F)cc2)sc1[S@@](C)(=N)=O` [drawing 1]: in the data set on carboanhydrase, the off-target carboanhydrase activity result is given as “no off-target carboanhydrase activity”. In addition, the brain penetration entry in data set [1] was “improved brain penetration”.
